Results taken from article PMC6956045 (Pharmaceutics, 2019).
Values after ≈ are worked out from the molar mass of the structure shown.

How the values were obtained:
[1] = Bulk phase partition coefficient n-octanol/phosphate buffer; type: physicochemical; conditions: pH 6.8, read-out: n-Octanol partition coefficient P (converted)
Description: The partition coefficient was calculated as the ratio between octanol concentration and the aqueous concentration. Three replicates were done to determine the average value.
Partition coefficients can be used as an index to provisionally classify compounds in terms of permeability.

[2] = cited from earlier work
[3] = cited from earlier work; remark: listed apart in the source
Caco-2 cell monolayers = experiment: Permeability assay: Caco-2 transport studies; type: in vitro ADME
Description: Caco-2 cells were grown in a polycarbonate membrane. To reach the confluence, 250,000 cells/cm^2 were seeded in six Transwell plates and […] for 19–22 days with Dubelcco’s Modified Eagle’s Media, with 1% L-glutamine, 10% fetal bovine serum, and 1% penicillin/streptomycin, at 37 °C temperature, 90% relative humidity, and 5% CO2.
The confluence of the cells was tested by measuring the transepithelial electrical resistance (TEER). Permeability studies were conducted with an orbital shaking (50 rpm) and with pH 7.0 in both chambers. Standard protocols were described and validated previously in our laboratory. Four samples of 200 µL were taken and replaced with a fresh buffer from the receiver side at 15, 30, 45, and 90 min.
Permeability studies were performed in both directions: apical-to-basal (A-to-B) and basal-to-apical (B-to-A).
The apparent permeability coefficient was calculated according the following equation:(1) Creceiver,t=Qtotal/Vreceiver+Vdonor+((Creceiver,t−1·f)−Qtotal/Vreceiver+Vdonor)·e^−Peff 0,1·S·(1/Vreceiver+1/Vdonor)·Δt where Creceiver,t is the drug concentration in the receiver chamber at time t, Qtotal is the total amount of drug in both chambers, Vreceiver and Vdonor are the volumes of each chamber, Creceiver,t−1 is the drug concentration in the receiver chamber at the previous time, f is the sample replacement dilution factor, S is the surface area of the monolayer, Δt is the time interval, and Peff is the permeability coefficient as was described by Mangas-Sanjuan et al..
Experiments in the presence of the formulation excipients were done by dissolving a formulation tablet in 250 mL of buffer and filtrating the obtained dispersion to eliminate nonsoluble excipients.

[4] = Solubility assay: saturation shake-flask method; type: physicochemical; conditions: for solubility at 8 h: thermodynamic from solid, 37 °C, shake-flask
Description: The solubility assays were performed according to the World Health Organization (WHO) guidelines protocols. […] A sample concentration was determined using high-performance liquid chromatography (HPLC) with ultraviolet (UV) detection.

Structure (SMILES): COCCc1ccc(OCC(O)CNC(C)C)cc1 (stereo not shown) [Metoprolol]
- logD [1]: -0.638

Structure (SMILES): CC[C@H](C)C(=O)O[C@H]1C[C@H](O)C=C2C=C[C@H](C)[C@H](CC[C@@H](O)C[C@@H](O)CC(=O)O)[C@H]21 [Pravastatin sodium]
- Solubility in chloroform [2]: practically insoluble
- Solubility in water, methanol and acetonitrile [2]: easily soluble

Structure (SMILES): CC[C@H](C)C(=O)O[C@H]1C[C@H](O)C=C2C=C[C@H](C)[C@H](CC[C@@H](O)C[C@@H](O)CC(=O)O)[C@H]21 [Pravastatin]
- logD [1]: -0.155
- First-pass hepatic effect (of the absorbed drug) [3]: 66%
- Intestinal absorption (of dose administered) [3]: 34%
- Concentration dependence of permeability (Caco-2 cell monolayers; Caco-2, 50-1000 μM): permeability increased at higher concentrations
- Permeability compared with metoprolol (Caco-2 cell monolayers; Caco-2, pH 7.0 both chambers, drug in solution): lower than that of metoprolol
- Permeability in the presence of sodium azide (Caco-2 cell monolayers; Caco-2, passive diffusion permeability, transporter contribution nullified): as high as metoprolol permeability
- log P [2]: 1.65
- pKa [2]: 4.21
- Solubility classification [4]: highly soluble
- solubility at 8 h ([4]; buffer solution pH 1.2, aqueous buffer, pH 1.2 buffer): 440 ± 17.4 mg/mL (≈ 1040 mM)
- solubility at 8 h ([4]; buffer solution pH 4.5, aqueous buffer, pH 4.5 buffer): 504 ± 24.2 mg/mL (≈ 1190 mM)
- solubility at 8 h ([4]; buffer solution pH 6.8, aqueous buffer, pH 6.8 buffer): 480 ± 17.4 mg/mL (≈ 1130 mM)
- Volume in which the highest strength/dose (40 mg) would be soluble ([4]; pH 1.2): 0.09 mL
